According to paper PMC3726599, “A Metabolically-Stabilized Phosphonate Analog of Lysophosphatidic Acid Attenuates Collagen-Induced Arthritis” (PLoS ONE, 2013):

Experiments:
[1] = molecular target: T1, recombinant ATX (Homo sapiens, UniProt Q13822); assay: Amplex Red activity assay, LPC hydrolysis by recombinant ATX (Echelon); type: biochemical; conditions: for % Inhibition at 10 μΜ: BrP-LPA 10 μΜ; for Ki: Cheng-Prusoff from IC50; for IC50: [S] 50 μΜ, Echelon ATX 2 nM, mean±std
T1 construct: purchased SinoBiological Inc (main data); R&D (additional Km values)
Protocol: BrP-LPA inhibition was also tested with the more sensitive reagent Amplex Red based on the Amplex™ Red PLD assay kit (Molecular Probes, Interchim, Montluçon, France) originally designed for the measurement of the PLD activity, [49]. All reactions were performed with purified ATX (2 nM) from Echelon at 37°C. The ability of ATX to cleave LPC was detected using a coupled assay that monitors the release of choline using Amplex Red (10 μΜ), choline oxidase (0.2 Units/ml) and horseradish peroxidise (2 Units/ml) The rate of fluorescence increase was measured in a fluorescence plate reader (Tecan Infinite 200 microplate reader from Tecan Trading AG, Switzerland) for up to 80 minutes; the fluorescence increase was linear during that time-frame for all cases. Rates were normalized to control reactions that contained all reaction components except for the test compound.
(§1) The biochemistry of lyso-PLD was assessed by following the kinetics data using a wide panel of different ATX substrates [FS-3, different LPC species (14:0, 16:0, 18:0, 18:1)], three different recombinant ATX proteins (R&D, Sino-Biological and Echelon) and three different ATX activity assays (FS-3, TOOS, Amplex Red). The ATX activity was measured at different substrate concentrations (typically from 1-1000 μM) in order to examine whether ATX follows Michaelis-Menten kinetics. The Michaelis constant (Km) was obtained by fitting the substrate dependence of V (ATX activity) to a rectangular hyperbola using the non-linear regression analysis of the statistical software package Prism 4.0 (GraphPad Software, Inc.). Km and Vmax were evaluated from the rectangular hyperbola curve with the use of GraphPad software.
For in vitro inhibition measurements, BrP-LPA was dissolved in water as a stock solution (4 mM) and appropriate dilutions were made in water. The inhibition of ATX by BrP-LPA was measured employing 2 nM recombinant ATX, 50 μΜ LPC (14:0, 16:0, 18:0) and 0.01 to 100 μmol/L of BrP-LPA (final concentrations). The in vitro inhibition of ATX by BrP-LPA was evaluated with three different assays (FS-3, Amplex Red, and TOOS). […] BrP-LPA was also tested for its ability to inhibit mouse plasma ATX activity. Diluted mouse plasma was used as the source of ATX and the analysis of inhibition was made with TOOS as the in vitro inhibition assay.
The inhibition model (competitive, noncompetitive, or mixed type inhibition) was evaluated by graphical analysis with Lineweaver–Burk double reciprocal plots (1/[velocity] versus 1/[substrate]) and Cornish-Bowden plot ([substrate]/[velocity] versus [Inhibitor]). These plots were generated by the measurement of ATX activity in the presence of different BrP-LPA concentrations (0–10 μΜ) and increased amounts of 16:0 LPC (100, 200, 400 μΜ). The inhibition constants (Ki) and IC50 values were determined using the mean values obtained from two independent experiments. The relative remaining ATX activity or LPA levels in the presence of the BrP-LPA was expressed as a percentage of the corresponding control value (ATX activity, LPA levels without inhibitor). The IC50 value was determined graphically by plotting the log concentration of BrP-LPA versus relative remaining ATX activity or LPA levels of each test sample using the sigmoid dose–response fitting method (Prism® software). The IC50 (concentration of BrP-LPA sufficient to inhibit ATX activity or diminish LPA levels by 50%) was calculated by the equation f = y0+a/(1+exp(-(x-x0)/b)) given by SigmaPlot 11.0 (Systat Software, Inc., San Jose, CA, USA).
Ki was calculated using the equation of Cheng and Prusoff: Ki = IC50/1+[S]/Km, where Ki is the binding affinity of the inhibitor, IC50 is the functional strength of the inhibitor, [S] is substrate concentration and Km is the concentration of substrate at which enzyme activity is half maximal. Whereas the IC50 value for a compound may vary between experiments depending on experimental conditions, Ki is an absolute value. […]

[2] = molecular target: T1, recombinant ATX; assay: FS-3 ATX activity assay; type: biochemical
Protocol: Inhibition of ATX activity by BrP-LPA was determined using the cleavage of the ATX-specific fluorogenic substrate FS-3 (Echelon Biosciences, UT, USA). Assays were conducted in a final volume of 100 μl in the presence of 140 mM NaCl, 5 mM KCl, 1 mM MgCl2 and 50 mM Tris, pH 8.0 with the use of 1 µM FS-3, 2 nM ATX from Echelon and increasing concentrations of BrP-LPA. Reactions were brought up to 100 µl with ddH2O and were then incubated at 37°C in a Tecan Infinite 200 microplate reader (Tecan Trading AG, Switzerland) set to make fluorescence measurements every 1 min for a total period of 30 min. Autotaxin activity was quantified by measuring the rate of increase in fluorescence at 528 nm with excitation at 485 nm. At the end of the measurement, each data point was plotted on a graph of fluorescence versus time. A linear regression was fitted in the linear portion of the graph (3–20 min).
as §1, with “The Michaelis constant (Km) was obtained by fitting the substrate dependence of V (ATX activity) to a rectangular hyperbola using the non-linear regression analysis of the statistical software package Prism 4.0 (GraphPad Software, Inc.).” left out
For in vitro inhibition measurements, BrP-LPA was dissolved in water as a stock solution (4 mM) and appropriate dilutions were made in water. […] The in vitro inhibition of ATX by BrP-LPA was evaluated with three different assays (FS-3, Amplex Red, and TOOS). […]
The inhibition model (competitive, noncompetitive, or mixed type inhibition) was evaluated by graphical analysis with Lineweaver–Burk double reciprocal plots (1/[velocity] versus 1/[substrate]) and Cornish-Bowden plot ([substrate]/[velocity] versus [Inhibitor]). […]

[3] = tested on: LPA4; conditions: Ca++ mobilization, CHO cells; kind of constant not given; read-out: inhibition of LPA4; cited from earlier work
[4] = tested on: transformed NIH3T3 cells expressing ras and ATX; parameters: method as in PMID 18454946; conditions: cited from earlier work
[5] = tested on: MDA-MB-231; parameters: method as in PMID 19509223; conditions: MDA-MB-231, in vitro; cited from earlier work
[6] = tested on: non-small cell lung cancer xenograft; parameters: method as in PMID 20143443; conditions: three-dimensional non-small cell lung cancer xenograft; cited from earlier work
[7] = tested on: human colon cancer cells (HCT-116); parameters: method as in earlier work; conditions: HCT-116, in vitro; cited from earlier work

CCCCCCCCCCCCCCCC(=O)OC[C@@H](O)CC(Br)P(=O)(O)O (stereo partly drawn) [BrP-LPA, 1-bromo-3(S)-hydroxy-4-(palmitoyloxy)butyl-phosphonate]
% Inhibition at 10 μΜ ([1]; 14:0 LPC 50 μΜ): 75% | Ki ([1]; 14:0 LPC): 1000 ± 400 nM | % Inhibition at 10 μΜ ([1]; 18:0 LPC 50 μΜ): 75% | Ki ([1]; 18:0 LPC): 800 ± 200 nM | IC50 ([1]; substrate 14:0 LPC): 1600 ± 100 nM | IC50 ([1]; substrate 18:0 LPC): 1100 ± 100 nM | % Inhibition at 10 μΜ ([2]; FS-3 1 μΜ, BrP-LPA 10 μΜ): 95% | IC50 ([2]; FS-3 assay, [S] 1 μΜ FS-3, Echelon ATX 2 nM, mean±std): 400 ± 30 nM | Ki ([2]; FS-3 substrate, Cheng-Prusoff from IC50): 300 ± 100 nM | IC50 [3]: 270 nM | inhibition of invasiveness [4]: 40% | breast cancer cell migration [5]: reduce breast cancer cell (MDA-MB-231) migration in vitro | tumor growth and angiogenesis [6]: inhibit tumor growth and angiogenesis | proliferation, migration and invasion [7]: reduce human colon cancer cells (HCT-116) proliferation, migration and invasion in vitro
